Assay [1] deals with T1, recombinant human ACE2 (rhACE2) (Homo sapiens, UniProt Q9BYF1).
T1 construct: recombinant human ACE2 from Calbiochem for the constants
Briefly: fluorogenic peptide hydrolysis assay. The class given is biochemical. An excerpt: fluorogenic peptide hydrolysis assay on recombinant human ACE2 (rhACE2)

The next assay concerns T2, B38-CAP.
T2 construct: no tag mentioned
Kind of assay: fluorogenic peptide hydrolysis assay. The class given is biochemical, Paenibacillus sp. B38. The following applies: pH 7.5 HEPES, 0.3 M NaCl, 0.01% Triton X-100, 37 °C, 30 min; fluorogenic ACE2 substrate. The source says:
fluorogenic peptide hydrolysis assay on B38-CAP

For orientation: IC50 means the concentration that inhibits the measured activity by half.

Molecules are shown by their SMILES.

T1 sequence (Q9BYF1 18-740 limits assumed): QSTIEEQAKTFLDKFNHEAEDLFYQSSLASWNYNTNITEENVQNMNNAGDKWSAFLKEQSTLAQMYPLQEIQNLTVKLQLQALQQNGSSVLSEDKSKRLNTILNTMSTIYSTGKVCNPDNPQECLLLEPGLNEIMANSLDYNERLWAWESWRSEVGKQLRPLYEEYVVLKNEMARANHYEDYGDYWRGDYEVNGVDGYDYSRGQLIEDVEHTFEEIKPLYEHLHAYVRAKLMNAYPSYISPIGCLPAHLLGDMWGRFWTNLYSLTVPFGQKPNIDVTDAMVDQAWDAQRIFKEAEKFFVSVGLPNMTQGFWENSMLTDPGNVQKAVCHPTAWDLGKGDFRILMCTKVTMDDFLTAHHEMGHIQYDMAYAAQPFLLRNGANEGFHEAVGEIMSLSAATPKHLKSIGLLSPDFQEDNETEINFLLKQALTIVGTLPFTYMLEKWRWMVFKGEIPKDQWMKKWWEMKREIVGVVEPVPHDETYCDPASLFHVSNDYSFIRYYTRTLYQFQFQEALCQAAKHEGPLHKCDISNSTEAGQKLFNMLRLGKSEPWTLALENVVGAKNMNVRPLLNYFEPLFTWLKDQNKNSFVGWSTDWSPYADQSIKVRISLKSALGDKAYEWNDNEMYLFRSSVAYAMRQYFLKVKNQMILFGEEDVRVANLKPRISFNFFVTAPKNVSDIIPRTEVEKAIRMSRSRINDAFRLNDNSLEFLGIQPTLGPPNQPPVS

Consider `CC(C)C[C@H](N[C@@H](Cc1cncn1Cc1cc(Cl)cc(Cl)c1)C(=O)O)C(=O)O` [MLN-4760], for which the IC50 in assay [1] was 0.34 ± 0.0501 nM; with B38-CAP it was 0.71 ± 0.173 nM.

The values are drawn from article PMC7044196, “B38-CAP is a bacteria-derived ACE2-like enzyme that suppresses hypertension and cardiac dysfunction” (Nature Communications, 2020).
